The nature of assay [1]: Menstrual cycle trend (frequency of the period). The conditions noted are these: before the treatment, same group of women with PCOS. Format: in vivo. The source says:
(§1) The women were divided into 3 groups, each group received the treatment according to the following scheme: • Group A: 20 women treated with 1.5 g of myo-inositol + 2 g of glucomannan, twicea day for 3 months, administered half an hour before meals; • Group B: 10 women treated with 1.5 g myo-inositol, twice a day for 3 months, administered half an hour before meals; • Group C: 10 women treated with a dose of 2 g of glucomannan, twice a day for 3 months, adminisered with main meals.
(§2) In addition to the assessment of blood glucose and insulin levels during OGTT, the menstrual cycle trend has been evaluated in all the women: the 3rd month of treatment at the 22nd day of the menstrual cycle a progesterone dosage was performed and, after 3 months of treatment, an evaluation of acne, hirsutism and body mass index was performed.

Assay [2] in a line: Plasma progesterone at the 22nd day of the period. It counts as in vivo, women.
Source text: as §1, §2

Assay [3] can be described thus: OGTT (oral glucose tolerance test): insulin levels. Format: in vivo. Details: unit not given beside the values. To be noted: OGTT 75 g, women with PCOS, treatment twice a day for 3 months. On the procedure: (§3) In order to evaluate the effectiveness of this new combination of inositol and glucomannan on blood glucose levels and insulin at baseline and after glucose load curve, it was evaluated the effect in 20 women affected by insulin resistance PCOS and compared with what determined in 2 groups of 10 women each, treated with myo-inositol and glucomannan individually administered.
as §1
(§4) In order to determine blood glucose and insulin levels in all samples, OGTT (oral glucose tolerance test) was performed in all women in the early follicular phase of the spontaneous period, or after a progestin-induced, period before starting the treatment and after three months of treatment ([…]) .

The nature of assay [4]: Body mass index evaluation. It counts as in vivo, women.
Source text: as §1, §2

Assay [5] is described as follows: OGTT (oral glucose tolerance test): blood glucose levels. To be noted: OGTT 75 g, women with PCOS, treatment twice a day for 3 months. Format: in vivo. On the procedure: as §3, §1, §4
Where [6] appears, read: before treatment, same group of women with PCOS.

As to `O[C@H]1[C@H](O)[C@@H](O)[C@H](O)[C@@H](O)[C@H]1O` [myo-inositol], the “frequency of the period” value in assay [1] lay in the range of 38 to 42 days. The plasma progesterone in assay [2] (22nd day of the period during the 3rd month of treatment) stood at 4.2 ± 0.6 ng/mL; in assay [2] (setting [6]), 2.2 ± 0.2 ng/mL. Further, the insulin levels is recorded as 7.6+1 in assay [3] (time 0); 57.5±7.13 in assay [3] (time 60'); 48.4±4.81 in assay [3] (time 90'); 40.7±5.57 in assay [3] (time 120'); 34±4.89 in assay [3] (time 180'). Moreover, the body mass index in assay [4] (at the 3rd month of treatment) is recorded as 25 ± 1.3; in assay [4] (setting [6]), 27 ± 0.6. Besides, the blood glucose levels in assay [5] (time 0) is listed as 90±4.71; in assay [5] (time 30'), 130.8±6.56; in assay [5] (time 90'), 107.2±10.25; in assay [5] (time 120') it was 98±6.92; in assay [5] (time 180'), 91.1±6.15.

The values above are taken from EP2875809B1, “Product based on an association of glucomannan and inositol” (Dicofarm Spa, priority 2013, dated 2015).
